Legend:
[1] = target: T1, Serine/threonine-protein kinase Chk1 (Homo sapiens) (UniProt O14757); assay: Inhibition of human recombinant CHK1 at 500 nM in presence of ATP by radiometric assay relative to control
T1 sequence (whole entry): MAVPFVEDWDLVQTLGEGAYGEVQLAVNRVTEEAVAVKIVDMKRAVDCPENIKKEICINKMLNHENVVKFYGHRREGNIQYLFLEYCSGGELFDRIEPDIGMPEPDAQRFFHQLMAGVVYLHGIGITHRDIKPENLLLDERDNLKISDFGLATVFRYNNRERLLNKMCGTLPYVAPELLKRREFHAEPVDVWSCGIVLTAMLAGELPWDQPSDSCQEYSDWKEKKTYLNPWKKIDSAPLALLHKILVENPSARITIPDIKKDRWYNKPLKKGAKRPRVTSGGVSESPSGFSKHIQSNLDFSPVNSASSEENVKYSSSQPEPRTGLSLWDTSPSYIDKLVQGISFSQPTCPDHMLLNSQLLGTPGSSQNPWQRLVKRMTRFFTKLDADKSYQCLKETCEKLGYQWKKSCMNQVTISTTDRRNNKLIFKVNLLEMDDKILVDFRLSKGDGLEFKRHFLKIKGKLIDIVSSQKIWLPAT

[2] = target: Serine/threonine-protein kinase 32A (Homo sapiens) (UniProt Q8WU08); assay: Inhibition of human recombinant YANK1 at 500 nM related to control ULK1
Serine/threonine-protein kinase 32A (Homo sapiens), sequence (Q8WU08 whole entry): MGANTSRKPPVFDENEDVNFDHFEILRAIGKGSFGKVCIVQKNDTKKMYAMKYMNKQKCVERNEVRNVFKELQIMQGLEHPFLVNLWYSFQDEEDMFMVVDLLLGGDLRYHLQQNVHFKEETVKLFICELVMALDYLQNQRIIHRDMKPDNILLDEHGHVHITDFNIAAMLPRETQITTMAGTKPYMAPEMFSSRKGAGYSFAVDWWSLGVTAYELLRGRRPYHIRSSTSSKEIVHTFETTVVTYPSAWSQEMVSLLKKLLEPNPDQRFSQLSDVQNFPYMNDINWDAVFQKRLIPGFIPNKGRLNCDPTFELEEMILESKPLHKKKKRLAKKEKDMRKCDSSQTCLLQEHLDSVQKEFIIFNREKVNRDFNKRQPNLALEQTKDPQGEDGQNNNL

[3] = target: T2, Serine/threonine-protein kinase BRSK1 (Homo sapiens) (UniProt Q8TDC3); assay: Inhibition of human recombinant BRSK1 at 15 nM related to control ULK1
T2 sequence (whole entry): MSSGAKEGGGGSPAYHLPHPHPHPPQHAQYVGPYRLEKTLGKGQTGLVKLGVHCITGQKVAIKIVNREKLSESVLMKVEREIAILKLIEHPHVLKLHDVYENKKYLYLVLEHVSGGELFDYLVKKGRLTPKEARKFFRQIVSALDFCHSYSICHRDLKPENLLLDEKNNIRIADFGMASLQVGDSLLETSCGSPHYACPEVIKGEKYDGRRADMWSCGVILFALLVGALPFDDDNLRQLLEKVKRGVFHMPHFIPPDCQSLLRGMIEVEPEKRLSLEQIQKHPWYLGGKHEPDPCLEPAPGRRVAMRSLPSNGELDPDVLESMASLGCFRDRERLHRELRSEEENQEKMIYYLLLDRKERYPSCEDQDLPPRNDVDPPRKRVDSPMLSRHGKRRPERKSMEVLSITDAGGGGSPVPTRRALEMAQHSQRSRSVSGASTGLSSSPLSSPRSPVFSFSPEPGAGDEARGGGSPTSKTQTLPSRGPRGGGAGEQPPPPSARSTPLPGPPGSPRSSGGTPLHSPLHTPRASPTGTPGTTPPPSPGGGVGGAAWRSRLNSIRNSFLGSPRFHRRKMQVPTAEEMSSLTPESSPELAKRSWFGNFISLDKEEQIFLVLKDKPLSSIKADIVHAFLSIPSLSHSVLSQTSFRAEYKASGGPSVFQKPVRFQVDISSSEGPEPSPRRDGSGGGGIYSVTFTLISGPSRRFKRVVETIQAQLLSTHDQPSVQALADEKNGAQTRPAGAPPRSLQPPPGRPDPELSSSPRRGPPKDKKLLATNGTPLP

[4] = target: T3, Serine/threonine-protein kinase Nek1 (Homo sapiens) (UniProt Q96PY6); assay: Inhibition of human recombinant NEK1 at 40 nM in presence of ATP by radiometric assay relative to control
T3 sequence (whole entry): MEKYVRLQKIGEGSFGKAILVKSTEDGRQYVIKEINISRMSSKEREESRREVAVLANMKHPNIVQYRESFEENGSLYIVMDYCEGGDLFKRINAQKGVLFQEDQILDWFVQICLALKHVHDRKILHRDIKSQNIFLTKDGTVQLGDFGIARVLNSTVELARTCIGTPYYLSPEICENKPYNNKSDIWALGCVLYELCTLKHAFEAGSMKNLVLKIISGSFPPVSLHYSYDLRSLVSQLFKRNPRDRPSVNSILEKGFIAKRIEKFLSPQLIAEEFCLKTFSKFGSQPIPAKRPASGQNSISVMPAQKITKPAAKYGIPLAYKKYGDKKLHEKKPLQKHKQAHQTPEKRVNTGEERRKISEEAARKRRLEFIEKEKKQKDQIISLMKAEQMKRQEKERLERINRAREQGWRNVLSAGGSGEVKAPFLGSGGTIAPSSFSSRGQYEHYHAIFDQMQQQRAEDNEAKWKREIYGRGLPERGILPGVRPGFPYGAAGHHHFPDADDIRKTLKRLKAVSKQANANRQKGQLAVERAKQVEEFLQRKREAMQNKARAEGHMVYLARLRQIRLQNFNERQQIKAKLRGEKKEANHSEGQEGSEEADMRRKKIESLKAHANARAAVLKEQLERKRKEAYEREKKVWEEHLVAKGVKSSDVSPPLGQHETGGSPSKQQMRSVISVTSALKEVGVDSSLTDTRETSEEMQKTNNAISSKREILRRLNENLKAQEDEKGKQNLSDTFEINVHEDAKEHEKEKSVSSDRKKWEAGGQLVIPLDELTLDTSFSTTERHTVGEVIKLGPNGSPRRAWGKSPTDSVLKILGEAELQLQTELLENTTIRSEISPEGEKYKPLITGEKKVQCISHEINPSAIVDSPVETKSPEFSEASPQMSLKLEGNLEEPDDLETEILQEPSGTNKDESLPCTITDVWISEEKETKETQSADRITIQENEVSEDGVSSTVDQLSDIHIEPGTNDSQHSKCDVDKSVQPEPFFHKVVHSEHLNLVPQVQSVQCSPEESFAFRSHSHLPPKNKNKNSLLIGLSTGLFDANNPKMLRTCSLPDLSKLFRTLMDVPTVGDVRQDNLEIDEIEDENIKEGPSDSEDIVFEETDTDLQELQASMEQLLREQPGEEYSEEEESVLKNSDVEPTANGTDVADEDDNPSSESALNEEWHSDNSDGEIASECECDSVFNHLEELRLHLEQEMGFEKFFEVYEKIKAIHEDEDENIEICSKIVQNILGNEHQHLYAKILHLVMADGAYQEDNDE

[5] = target: Homeodomain-interacting protein kinase 1 (Homo sapiens) (UniProt Q86Z02); assay: Inhibition of human recombinant HIPK1 at 40 nM related to control ULK1
Homeodomain-interacting protein kinase 1 (Homo sapiens), sequence (Q86Z02 whole entry, looked up): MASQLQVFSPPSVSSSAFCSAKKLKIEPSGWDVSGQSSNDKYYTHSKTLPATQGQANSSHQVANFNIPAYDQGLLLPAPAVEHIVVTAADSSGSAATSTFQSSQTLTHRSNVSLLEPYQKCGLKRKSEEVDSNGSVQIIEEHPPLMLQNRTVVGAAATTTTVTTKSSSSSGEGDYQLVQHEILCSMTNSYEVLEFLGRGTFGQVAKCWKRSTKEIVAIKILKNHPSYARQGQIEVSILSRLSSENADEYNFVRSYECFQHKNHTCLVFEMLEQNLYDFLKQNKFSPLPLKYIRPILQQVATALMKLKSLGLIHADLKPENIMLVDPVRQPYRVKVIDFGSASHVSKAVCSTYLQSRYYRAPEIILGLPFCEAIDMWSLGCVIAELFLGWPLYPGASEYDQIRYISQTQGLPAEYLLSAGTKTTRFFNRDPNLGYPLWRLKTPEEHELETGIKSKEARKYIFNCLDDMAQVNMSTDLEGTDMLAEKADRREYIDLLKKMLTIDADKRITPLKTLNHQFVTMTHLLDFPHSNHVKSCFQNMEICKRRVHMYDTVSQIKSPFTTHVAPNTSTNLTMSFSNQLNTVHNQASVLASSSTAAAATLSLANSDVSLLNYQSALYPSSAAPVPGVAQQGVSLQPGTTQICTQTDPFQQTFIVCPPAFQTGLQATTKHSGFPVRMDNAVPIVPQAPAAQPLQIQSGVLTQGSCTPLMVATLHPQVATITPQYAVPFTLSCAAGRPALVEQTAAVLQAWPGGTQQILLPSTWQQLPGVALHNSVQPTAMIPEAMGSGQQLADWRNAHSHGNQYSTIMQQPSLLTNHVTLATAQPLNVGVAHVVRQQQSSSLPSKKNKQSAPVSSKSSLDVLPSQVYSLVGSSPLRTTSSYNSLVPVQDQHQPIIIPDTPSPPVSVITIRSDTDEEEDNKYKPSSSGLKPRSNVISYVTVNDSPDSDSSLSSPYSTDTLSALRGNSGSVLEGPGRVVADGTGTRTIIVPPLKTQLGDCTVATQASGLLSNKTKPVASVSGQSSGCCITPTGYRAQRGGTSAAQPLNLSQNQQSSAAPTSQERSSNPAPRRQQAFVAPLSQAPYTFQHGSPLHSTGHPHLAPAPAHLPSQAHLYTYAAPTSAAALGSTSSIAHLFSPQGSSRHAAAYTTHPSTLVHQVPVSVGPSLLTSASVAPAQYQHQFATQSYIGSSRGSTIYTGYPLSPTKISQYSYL

Homo sapiens = organism: Homo sapiens; assay: Inhibition of human recombinant KHS1 at 40 nM related to control ULK1

CNC(=O)c1ccccc1Oc1nc(Nc2cc(OC)c(OC)c(OC)c2)ncc1Br was tested. Which inhibition [1] did it give?
Its inhibition is 4%.

And the fold change (FC) [2]?
The fold change (FC) was 0.

For CC(C)[C@H](NC(=O)c1cc(-c2cnn3cc(-c4ccc(OCCN5CCCCC5)cc4)cnc23)cs1)C(F)(F)F, which fold change (FC) [3] is on record?
The fold change (FC) was 0.15.

For O=C(N[C@@H](C1CC1)C(F)(F)F)c1cc(-c2cnn3cc(-c4ccc(F)cc4)cnc23)cs1, which inhibition [4] is on record?
The inhibition was 0%.

And the fold change (FC) [5]?
Its fold change (FC) is 0.

And the fold change (FC) (Homo sapiens)?
The fold change (FC) was 0.

Reference: ChEMBL document CHEMBL5653631, “A Potent and Selective ULK1 Inhibitor Suppresses Autophagy and Sensitizes Cancer Cells to Nutrient Stress” (iScience, 2018)
